Data set [1] deals with T1, Solute carrier organic anion transporter family member 1B3 (Homo sapiens, UniProt Q9NPD5).
T1 sequence (Q9NPD5 whole entry): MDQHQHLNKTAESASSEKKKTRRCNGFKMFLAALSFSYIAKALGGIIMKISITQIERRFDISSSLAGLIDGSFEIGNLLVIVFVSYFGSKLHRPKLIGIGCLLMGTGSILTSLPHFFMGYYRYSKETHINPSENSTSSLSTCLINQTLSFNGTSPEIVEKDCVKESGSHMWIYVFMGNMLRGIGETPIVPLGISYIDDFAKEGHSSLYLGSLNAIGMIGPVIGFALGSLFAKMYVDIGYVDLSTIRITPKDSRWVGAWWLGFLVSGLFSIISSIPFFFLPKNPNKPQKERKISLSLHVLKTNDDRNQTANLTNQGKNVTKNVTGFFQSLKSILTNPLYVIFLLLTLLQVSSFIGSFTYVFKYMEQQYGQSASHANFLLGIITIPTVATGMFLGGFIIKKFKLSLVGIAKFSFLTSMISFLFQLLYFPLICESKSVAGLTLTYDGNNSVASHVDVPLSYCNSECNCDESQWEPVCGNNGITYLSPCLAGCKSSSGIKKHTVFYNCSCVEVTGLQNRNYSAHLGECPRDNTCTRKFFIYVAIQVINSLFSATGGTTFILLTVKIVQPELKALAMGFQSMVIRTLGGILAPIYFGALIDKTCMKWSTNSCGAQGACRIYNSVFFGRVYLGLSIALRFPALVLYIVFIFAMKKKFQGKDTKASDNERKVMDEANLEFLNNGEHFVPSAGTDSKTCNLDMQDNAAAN
The experiment in a line: Inhibition of human liver OATP1B3 expressed in HEK293 Flp-In cells assessed as reduction in [3H]E17-betaG uptake at 20 uM incubated for 5 mins by scintillation counting. As to conditions: hek293, 5 min.

For data set [2], the target named is T2, Solute carrier organic anion transporter family member 1B1 (Homo sapiens, UniProt Q9Y6L6).
T2 sequence (Q9Y6L6 whole entry): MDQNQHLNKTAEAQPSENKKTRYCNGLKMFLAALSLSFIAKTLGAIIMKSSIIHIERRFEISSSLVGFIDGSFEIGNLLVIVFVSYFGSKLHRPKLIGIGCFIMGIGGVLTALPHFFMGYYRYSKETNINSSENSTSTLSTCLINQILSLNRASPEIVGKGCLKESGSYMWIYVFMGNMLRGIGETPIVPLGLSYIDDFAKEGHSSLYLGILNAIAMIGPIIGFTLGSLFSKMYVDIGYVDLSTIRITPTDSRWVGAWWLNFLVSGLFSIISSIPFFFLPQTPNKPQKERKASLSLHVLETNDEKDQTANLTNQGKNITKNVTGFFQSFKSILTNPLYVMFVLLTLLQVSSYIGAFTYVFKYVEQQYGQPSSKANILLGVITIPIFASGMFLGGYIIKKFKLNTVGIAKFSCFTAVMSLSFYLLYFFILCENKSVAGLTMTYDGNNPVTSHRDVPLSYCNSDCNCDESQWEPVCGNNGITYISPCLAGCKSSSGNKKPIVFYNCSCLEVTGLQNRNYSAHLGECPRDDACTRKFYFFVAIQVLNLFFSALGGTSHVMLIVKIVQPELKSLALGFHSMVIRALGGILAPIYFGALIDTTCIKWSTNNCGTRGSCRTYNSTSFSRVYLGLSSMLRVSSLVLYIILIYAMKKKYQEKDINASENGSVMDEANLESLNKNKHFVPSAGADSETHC
The experiment in a line: Inhibition of human liver OATP1B1 expressed in HEK293 Flp-In cells assessed as reduction in E17-betaG uptake at 20 uM by scintillation counting. As to conditions: hek293, 20 µM.

Data set [3] addresses T3, Solute carrier organic anion transporter family member 2B1 (Homo sapiens, UniProt O94956).
T3 sequence (O94956 whole entry): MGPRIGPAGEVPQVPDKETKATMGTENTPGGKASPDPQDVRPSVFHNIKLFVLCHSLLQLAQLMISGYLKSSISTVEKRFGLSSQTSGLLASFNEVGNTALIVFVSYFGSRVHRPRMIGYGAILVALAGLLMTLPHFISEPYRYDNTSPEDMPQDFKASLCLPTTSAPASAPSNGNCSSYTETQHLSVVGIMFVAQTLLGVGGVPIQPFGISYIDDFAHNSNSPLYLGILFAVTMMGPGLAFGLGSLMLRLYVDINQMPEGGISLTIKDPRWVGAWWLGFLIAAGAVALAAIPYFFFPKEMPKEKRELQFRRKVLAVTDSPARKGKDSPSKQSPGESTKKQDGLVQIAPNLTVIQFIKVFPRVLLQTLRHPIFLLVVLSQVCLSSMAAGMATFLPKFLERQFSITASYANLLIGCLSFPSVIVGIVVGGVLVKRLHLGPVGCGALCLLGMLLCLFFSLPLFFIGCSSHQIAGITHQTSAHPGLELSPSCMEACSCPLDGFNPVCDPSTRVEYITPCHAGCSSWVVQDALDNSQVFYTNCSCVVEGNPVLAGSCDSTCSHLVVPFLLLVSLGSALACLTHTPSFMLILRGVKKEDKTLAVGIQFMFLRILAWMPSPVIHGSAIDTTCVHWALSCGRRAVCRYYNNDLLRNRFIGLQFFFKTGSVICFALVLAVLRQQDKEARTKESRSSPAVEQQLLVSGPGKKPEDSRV
Put plainly: Inhibition of human liver OATP2B1 expressed in HEK293 Flp-In cells assessed as reduction in [3H]E3S uptake at 20 uM incubated for 5 mins by scintillation counting. The settings on record: hek293, 5 min.

Structures are written as SMILES. *1 amine or outer side, *2 acyl side, *3 side chain or, on linkers, in order; H or OH if unused. Where a SMILES comes first, the peptide text is derived from it. Bridges are numbered along the chain shown (N, C = ends). [ ]: non-standard residue; d: D form. Trp(2-yl) = O=C([C@H](Cc1c([*:3])[nH]c2ccccc12)N[*:1])[*:2]; Leu(4R-OH,5-OH) = C[C@](O)(CO)C[C@H](N)C(=O)O; cisHyp = O=C(O)[C@@H]1C[C@H](O)CN1

On to `CC#C[C@]1(O)CC[C@H]2[C@@H]3CCC4=CC(=O)CCC4=C3[C@@H](c3ccc(N(C)C)cc3)C[C@@]21C` [MIFEPRISTONE], for which the INH in data set [1] is 80.3%; in data set [2] it was 81.2%; in data set [3], 70.7%.

As to `O=C1c2c(O)ccc(O)c2C(=O)c2c(NCCNCCO)ccc(NCCNCCO)c21` [MITOXANTRONE], the INH in data set [1] is given as 67.9%; in data set [2] it was 27.2%; in data set [3] it was 48.3%.

On to `CN(C)C(=O)CCSC(SCCC(=O)O)c1cccc(/C=C/c2ccc3ccc(Cl)cc3n2)c1` (centres undefined) [MK-571], for which the values for the INH in data set [1], in data set [2] and in data set [3] were 80.7%, 88.5% and 75.2%, respectively.

Consider `O=C(NCCN1CCOCC1)c1ccc(Cl)cc1` [MOCLOBEMIDE], for which the INH is recorded as -3.3% in data set [1], 1.7% in data set [2] and 27.5% in data set [3].

For `O=c1c(O)c(-c2ccc(O)cc2O)oc2cc(O)cc(O)c12` [MORIN], the figures for the INH in data set [1], in data set [2] and in data set [3] were 78.5%, 85.2% and 71.3%, respectively.

On to `O=C1C[C@@H](c2ccc(O)cc2)Oc2cc(O)cc(O)c21` [NARINGENIN], for which the INH in data set [1] is -57.2%; in data set [2], 34.8%; in data set [3], 32.4%.

As for `C[C@@H]1O[C@@H](O[C@H]2[C@H](Oc3cc(O)c4c(c3)O[C@H](c3ccc(O)cc3)CC4=O)O[C@H](CO)[C@@H](O)[C@@H]2O)[C@H](O)[C@H](O)[C@H]1O` [NARINGIN], the INH was 37.7% in data set [1], 34% in data set [2] and 47.1% in data set [3].

Regarding `CCc1nn(CCCN2CCN(c3cccc(Cl)c3)CC2)c(=O)n1CCOc1ccccc1` [NEFAZODONE], the INH in data set [1] was found to be 61.4%; in data set [2], 12%; in data set [3] it was 61.5%.

Turning to `COC(=O)C1=C(C)NC(C)=C(C(=O)OCCN(C)Cc2ccccc2)C1c1cccc([N+](=O)[O-])c1` (centres undefined) [NICARDIPINE], the INH in data set [1] was 10.1%; in data set [2] it was 65.1%; in data set [3] it was 31.8%.

Turning to `CN1CCC[C@H]1c1cccnc1` [NICOTINE], the INH in data set [1] is listed as 11%; in data set [2] it was 6.9%; in data set [3], -16.5%.

With `CNC(=O)c1cccnc1` [NICOTINYL METHYLAMIDE], the figures for the INH in data set [1], in data set [2] and in data set [3] were -0.5%, 71.4% and 14.5%, respectively.

In the case of `C=C(C)[C@@H]1CCC2=CC(=O)C[C@@H](C)[C@]2(C)C1` [NOOTKATONE], the INH was -3.2% in data set [1], 25.6% in data set [2] and -72.2% in data set [3].

With `CO[C@@H]1[C@@H](OC(N)=O)[C@@H](O)[C@H](Oc2ccc3c(O)c(NC(=O)c4ccc(O)c(CC=C(C)C)c4)c(=O)oc3c2C)OC1(C)C` [NOVOBIOCIN], the INH in data set [1] came out at 84.2%; in data set [2] it was 58.1%; in data set [3], 85.6%.

Regarding `COc1ccc2[nH]c([S+]([O-])Cc3ncc(C)c(OC)c3C)nc2c1` (centres undefined) [OMEPRAZOLE], the INH is reported as 29.5% in data set [1], 15.9% in data set [2] and 11.3% in data set [3].

With `C[C@@H]1O[C@@H](O[C@H]2C[C@@H](O)[C@]3(CO)[C@H]4[C@H](O)C[C@]5(C)[C@@H](C6=CC(=O)OC6)CC[C@]5(O)[C@@H]4CC[C@]3(O)C2)[C@H](O)[C@H](O)[C@H]1O` [OUABAIN], the INH in data set [1] was 20.5%; in data set [2] it was 50.5%; in data set [3], -24.1%.

Consider `COc1ccnc(C[S+]([O-])c2nc3ccc(OC(F)F)cc3[nH]2)c1OC` (centres undefined) [PANTOPRAZOLE], for which the INH in data set [1] was determined as 23.4%; in data set [2] it was 15.2%; in data set [3] it was 17.3%.

Regarding `Fc1ccc([C@@H]2CCNC[C@H]2COc2ccc3c(c2)OCO3)cc1` [PAROXETINE], the INH in data set [1] is listed as 12.7%; in data set [2], 33%; in data set [3], 37.5%.

For the molecule `CC1(C)S[C@@H]2[C@H](NC(=O)Cc3ccccc3)C(=O)N2[C@H]1C(=O)O` [PENICILLIN G], the INH in data set [1] is 40.9%; in data set [2] it was 8.8%; in data set [3], 7.6%.

`C[C@@H]1NC(=O)[C@H](C[C@@](C)(O)CO)NC(=O)[C@@H]2Cc3c([nH]c4ccccc34)SC[C@H](NC(=O)[C@@H]([C@H](C)O)NC1=O)C(=O)N1C[C@@H](O)C[C@H]1C(=O)N[C@@H](C)C(=O)N2` [PHALLOIDIN] (cyclo(A[dT]C[cisHyp]A[Trp(2-yl)][Leu(4R-OH,5-OH)]); thioether 3-6): the INH in data set [1] amounted to 36.2%; in data set [2] it was 26.1%; in data set [3] it was 24.1%.

As for `CCOc1ccc(NC(C)=O)cc1` [PHENACETIN], the INH in data set [1] is reported as -0.9%; in data set [2] it was 34.2%; in data set [3] it was -0.1%.

As to `[H]/N=C(/N)N/C(=N/[H])NCCc1ccccc1` [PHENFORMIN], the values for the INH in data set [1], in data set [2] and in data set [3] were -2.3%, 34.5% and 16.7%, respectively.

`CCC1(c2ccccc2)C(=O)NC(=O)NC1=O` [PHENOBARBITAL]: the figures for the INH in data set [1], in data set [2] and in data set [3] were 7.3%, -3.9% and 11%, respectively.

As to `Cc1cccc(C)c1NC(=O)CC12CCCN1CCC2` [PILSICAINIDE], the INH in data set [1] was -16.8%; in data set [2], 11.2%; in data set [3] it was 10.8%.

Turning to `CC(C)NCC(O)COc1cccc2[nH]ccc12` (centres undefined) [PINDOLOL], the INH in data set [1] was 24.5%; in data set [2], -24.7%; in data set [3], -10.8%.

On to `CCc1ccc(CCOc2ccc(CC3SC(=O)NC3=O)cc2)nc1` (centres undefined) [PIOGLITAZONE], for which the INH in data set [1] is 5.6%; in data set [2], 21.9%; in data set [3], -9.9%.

`CN1C(C(=O)Nc2ccccn2)=C(O)c2ccccc2S1(=O)=O` [PIROXICAM]: the INH in data set [1] was determined as 23.5%; in data set [2], 16.2%; in data set [3] it was 68.3%.

For the molecule `O=C(O)C[C@H](O)C[C@H](O)/C=C/c1c(C2CC2)nc2ccccc2c1-c1ccc(F)cc1` [PITAVASTATIN], the INH was 94.3% in data set [1], 97.4% in data set [2] and 63.7% in data set [3].

With `COc1cc2nc(N3CCN(C(=O)c4ccco4)CC3)nc(N)c2cc1OC` [PRAZOSIN], the INH amounted to 36.1% in data set [1], 25.1% in data set [2] and 1% in data set [3].
